The source made the active and inactive calls.
Experiments:
[1] = target: T1, Sentrin-specific protease 7 (Homo sapiens, UniProt Q9BQF6); assay type: functional;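 also: Luminescence-based dose-response confirmation of ultra-high-throughput screening hits, measuring inhibition of SENP7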
T1 sequence (Q9BQF6 whole entry): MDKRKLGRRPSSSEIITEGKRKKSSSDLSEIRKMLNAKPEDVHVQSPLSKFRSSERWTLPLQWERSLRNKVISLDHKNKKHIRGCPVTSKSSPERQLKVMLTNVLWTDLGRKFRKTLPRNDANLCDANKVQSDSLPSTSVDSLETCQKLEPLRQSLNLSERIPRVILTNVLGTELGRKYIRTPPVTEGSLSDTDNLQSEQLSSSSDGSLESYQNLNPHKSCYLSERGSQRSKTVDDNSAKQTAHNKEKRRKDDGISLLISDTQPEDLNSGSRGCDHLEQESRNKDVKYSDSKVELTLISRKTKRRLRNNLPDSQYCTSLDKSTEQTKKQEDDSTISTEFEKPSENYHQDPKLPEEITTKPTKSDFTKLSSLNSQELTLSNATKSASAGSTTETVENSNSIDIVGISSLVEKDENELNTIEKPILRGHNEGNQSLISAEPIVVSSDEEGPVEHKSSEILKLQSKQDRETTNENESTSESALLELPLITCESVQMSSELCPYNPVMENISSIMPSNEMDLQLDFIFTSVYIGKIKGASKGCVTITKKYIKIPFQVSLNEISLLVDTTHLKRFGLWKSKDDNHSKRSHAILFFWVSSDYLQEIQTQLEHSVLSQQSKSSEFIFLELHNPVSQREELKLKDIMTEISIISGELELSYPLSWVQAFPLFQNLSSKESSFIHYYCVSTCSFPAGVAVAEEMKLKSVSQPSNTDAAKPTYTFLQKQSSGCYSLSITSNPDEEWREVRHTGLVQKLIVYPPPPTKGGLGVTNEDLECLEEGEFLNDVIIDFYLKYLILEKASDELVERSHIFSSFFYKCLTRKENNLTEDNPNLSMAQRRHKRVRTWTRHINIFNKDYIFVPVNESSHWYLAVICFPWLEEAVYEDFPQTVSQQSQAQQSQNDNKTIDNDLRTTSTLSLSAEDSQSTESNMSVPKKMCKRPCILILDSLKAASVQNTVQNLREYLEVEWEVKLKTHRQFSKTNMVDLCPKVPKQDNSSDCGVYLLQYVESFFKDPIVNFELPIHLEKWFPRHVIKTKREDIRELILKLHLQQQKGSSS

[2] = target: Heat shock protein HSP 90-alpha (Homo sapiens, UniProt P07900); assay type: functional, organism-based
Streptococcus = test: GAS UMAA2166 growth inhibition – luminescence, BacTiterGlo, counter-screen for streptokinase expression inhibitor project, dose response (AID 1915); assay type: functional, organism-based;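 also: potency for reduction of bacterial viability or growth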
Streptokinase A = target: T2, Streptokinase A (Streptococcus pyogenes serotype M1, UniProt P10520); test: viability-normalized secreted streptokinase activity reduction – plasminogen activation absorbance, OD405, dose response (AID 1914); assay type: functional, Streptococcus pyogenes M1 GAS;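 also: secreted streptokinase activity via plasminogen activation per viability signal from cell pellet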
T2 sequence (P10520 whole entry): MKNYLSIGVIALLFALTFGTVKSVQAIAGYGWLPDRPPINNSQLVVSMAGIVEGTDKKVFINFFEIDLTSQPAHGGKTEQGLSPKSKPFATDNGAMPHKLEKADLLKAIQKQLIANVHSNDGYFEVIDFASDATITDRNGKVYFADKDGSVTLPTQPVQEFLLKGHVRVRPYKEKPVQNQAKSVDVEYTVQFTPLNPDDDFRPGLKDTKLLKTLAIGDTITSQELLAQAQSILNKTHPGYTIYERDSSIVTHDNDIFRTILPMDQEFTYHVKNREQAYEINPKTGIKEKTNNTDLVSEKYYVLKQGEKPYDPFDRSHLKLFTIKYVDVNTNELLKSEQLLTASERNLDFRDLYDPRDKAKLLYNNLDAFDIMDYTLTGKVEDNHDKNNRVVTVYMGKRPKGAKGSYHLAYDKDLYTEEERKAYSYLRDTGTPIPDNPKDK

HEK293 = test: cells; assay type: functional, cell-based; conditions: Homo sapiens;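 also: NOD2 overexpressing HEK293T cells carrying an NF-kB luciferase reporter; compound exposure roughly 14 hours overnight then 1 hour with resazurin; potency is for loss of cell viability meaning cytotoxicity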
[3] = target: 5-hydroxytryptamine receptor 5A (Homo sapiens, UniProt P47898); test: Counterscreen for agonists of OPRM1-OPRD1 heterodimerization: luminescence-based cell-based high throughput dose response assay to identify agonists of 5-hydroxytryptamine (serotonin) 5A receptor (HTR5A). [Related pubchem assays (depositor defined):AID504326, AID504355, AID504692, AID504904, AID504905]; assay type: functional
Chain of 5-hydroxytryptamine receptor 5A (P47898 whole entry): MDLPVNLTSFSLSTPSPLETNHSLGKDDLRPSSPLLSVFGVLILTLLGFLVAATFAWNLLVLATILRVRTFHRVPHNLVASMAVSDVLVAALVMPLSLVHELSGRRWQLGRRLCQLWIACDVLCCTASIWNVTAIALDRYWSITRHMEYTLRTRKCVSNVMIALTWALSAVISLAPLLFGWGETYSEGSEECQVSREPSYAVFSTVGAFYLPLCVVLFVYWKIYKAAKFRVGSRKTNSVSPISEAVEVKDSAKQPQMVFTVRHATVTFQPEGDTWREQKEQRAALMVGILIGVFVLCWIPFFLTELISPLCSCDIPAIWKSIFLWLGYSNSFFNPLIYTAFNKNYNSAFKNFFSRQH

[4] = target: T3, Replicative DNA helicase DnaB (Mycobacterium tuberculosis, UniProt P9WMR3); test: DnaB intein splicing inhibitors, dose response, biochemical, cell-free fluorescence (AID 449749); assay type: functional
T3 sequence (P9WMR3 whole entry): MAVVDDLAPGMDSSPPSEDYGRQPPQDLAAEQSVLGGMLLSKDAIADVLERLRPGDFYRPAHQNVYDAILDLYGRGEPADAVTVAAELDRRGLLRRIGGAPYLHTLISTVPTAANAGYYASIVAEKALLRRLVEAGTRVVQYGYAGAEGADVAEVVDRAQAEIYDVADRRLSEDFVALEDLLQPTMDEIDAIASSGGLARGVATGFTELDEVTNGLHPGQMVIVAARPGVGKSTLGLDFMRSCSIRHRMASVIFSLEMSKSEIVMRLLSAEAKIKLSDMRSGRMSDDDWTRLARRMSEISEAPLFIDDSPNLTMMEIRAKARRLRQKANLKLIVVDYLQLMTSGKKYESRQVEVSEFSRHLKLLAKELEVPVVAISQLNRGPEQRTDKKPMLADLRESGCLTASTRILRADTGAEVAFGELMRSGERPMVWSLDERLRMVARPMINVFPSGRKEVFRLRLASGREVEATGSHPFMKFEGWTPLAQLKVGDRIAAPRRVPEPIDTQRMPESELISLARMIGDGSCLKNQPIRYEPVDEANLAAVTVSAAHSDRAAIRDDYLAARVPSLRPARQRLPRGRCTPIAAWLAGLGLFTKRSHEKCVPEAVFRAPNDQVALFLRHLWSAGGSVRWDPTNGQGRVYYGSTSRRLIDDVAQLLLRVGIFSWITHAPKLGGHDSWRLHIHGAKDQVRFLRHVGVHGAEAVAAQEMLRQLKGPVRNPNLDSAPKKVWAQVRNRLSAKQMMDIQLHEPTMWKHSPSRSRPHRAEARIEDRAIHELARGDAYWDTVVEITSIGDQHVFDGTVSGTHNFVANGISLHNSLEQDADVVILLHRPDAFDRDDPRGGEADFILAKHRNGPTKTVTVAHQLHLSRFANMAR

Cc1ccc(C(=O)NNc2cc(N3CCCC3)nc(N3CCCC3)n2)cc1
IC50 [1]: 1.74 µM (active)

Cc1cc(/C=C2\SC(=S)N(C)C2=O)c(C)n1-c1ccc(O)cc1
AC50 [2]: 8.02 µM (active)
EC50 (Streptococcus): 3.06 µM (active)
EC50 (Streptokinase A): > 150 µM (not active)
IC50 [1]: 5.42 µM (active)
IC50 (HEK293): > 20 µM (inactive)
EC50 [3]: > 92.5 µM (inactive)

COC(=O)c1cccc(-c2ccc(C(c3c(C)n[nH]c3O)c3c(C)n[nH]c3O)o2)c1
AC50 [4]: 0.398 µM (active)

O=C1/C(=N\c2cccc(O)c2)C(N2CCCCC2)=C(O)c2ccccc21
AC50 [4]: 5.58 µM (active)

Source: ChEMBL document CHEMBL1201862, “PubChem BioAssay data set” (2004)
